According to US10457637B2, “Benzenesulfonamide derivatives as inverse agonists of retinoid-related orphan receptor gamma (RORγ(T))” (GALDERMA RESEARCH & DEVELOPMENT, priority 2014, dated 2019):

target: ROR gamma ligand-binding domain (hRORg) (Homo sapiens (Human), UniProt P51449); assay: GAL4-RORγ transactivation (luciferase reporter, HG5LN HeLa line); format: cell-based; settings: 18 hours incubation
Description: GAL4-RORγ Transactivation
The RORγ transactivation model was developed from the line HG5LN, which is a HeLa line that stably expresses a luciferase reporter gene controlled by a pentamer of the GAL4 recognition domain of yeast and of a β-globin promoter. The HG5LN line was stably transfected by the DNA-binding domain (DBD) of GAL4 fused to the ROR gamma ligand-binding domain (LBD). Molecules that inhibit the ROR gamma constitutive activity reduce the luciferase expression, thus leading to a reduction in the emitted luminescence.
The cells are seeded in 384-well plates (5000 cells in 45 μL/well of culture medium containing 10% fetal calf serum) and incubated for 4 hours at 37° C., 5% CO2. 5 μL of the test molecules (compounds described in the tables described above) are then added to each well and the plates are incubated for 18 hours at a temperature of 37° C. under 5% of CO2. 20 μL of luciferase substrate (Promega) are added to each well and the luminescence emitted is read by a microplate reader.
The luminescence units (“RLU”) are normalized by positive controls (“POS” containing a saturated concentration of benzenesulfonamide, N-(2,2,2-trifluoroethyl)-N-[4-[2,2,2-trifluoro-1-hydroxy-1-(trifluoromethyl)ethyl]phenyl]) and negative controls (“NEG” containing DMSO): % inhibition=((RLU−NEG)*100)/(POS−NEG). The IC50 values are calculated from a 4-parameter logistic model using the XLFit software (IDBS).

Chain of ROR gamma ligand-binding domain (hRORg) (P51449 269-508): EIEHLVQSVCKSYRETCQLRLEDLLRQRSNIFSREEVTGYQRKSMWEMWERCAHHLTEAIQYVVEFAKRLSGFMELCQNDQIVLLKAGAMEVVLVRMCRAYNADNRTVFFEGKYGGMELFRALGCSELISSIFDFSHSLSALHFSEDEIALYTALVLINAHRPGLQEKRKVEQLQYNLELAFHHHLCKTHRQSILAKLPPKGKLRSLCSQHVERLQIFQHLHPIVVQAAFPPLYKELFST

| SMILES | IC50 [nM] |
| --- | --- |
| CCc1ccc(N(CC(C)C)S(=O)(=O)c2ccc(NCc3nn[nH]n3)c(S(C)(=N)=O)c2)cc1 (centres unmarked) [compound 118, 4-(((2H-tetrazol-5-yl)methyl)amino)-N-(4-ethylphenyl)-N-isobutyl-3-(S-methylsulfonimidoyl)benzenesulfonamide] | > 1000 |
| CCc1ccc(N(CC(C)C)S(=O)(=O)c2ccc(NCC3CCN(C(C)=O)CC3)c(S(C)(=N)=O)c2)cc1 (centres unmarked) [compound 84, 4-(((1-acetylpiperidin-4-yl)methyl)amino)-N-(4-ethylphenyl)-N-isobutyl-3-(S-methylsulfonimidoyl)benzenesulfonamide] | > 1000 |
| CCc1ccc(N(CC(C)C)S(=O)(=O)c2ccc3c(c2)[S+]([O-])C(C)(C)N3CC2CCOCC2)cc1 (centres unmarked) [compound 74, 2,2-dimethyl-1-oxo-3-(tetrahydropyran-4-ylmethyl)-2,3-dihydro-1H-1λ^4-benzothiazole-6-sulfonic acid (4-ethylphenyl)isobutylamide] | 100 to 1000 |
| CCc1ccc(N(CC(C)C)S(=O)(=O)c2ccc(NCC3CCN(C(=O)OC)C3)c(S(C)(=N)=O)c2)cc1 (centres unmarked) [compound 94, methyl 3-(((4-(N-(4-ethylphenyl)-N-isobutylsulfamoyl)-2-(S-methylsulfonimidoyl)phenyl)amino)methyl)pyrrolidine-1-carboxylate] | > 1000 |
| CCc1ccc(N(CC(C)C)S(=O)(=O)c2ccc(NCc3nonc3C)c(S(C)(=N)=O)c2)cc1 (centres unmarked) [compound 88, N-(4-ethylphenyl)-N-isobutyl-4-(((4-methyl-1,2,5-oxadiazol-3-yl)methyl)amino)-3-(S-methylsulfonimidoyl)benzenesulfonamide] | > 1000 |
| CCc1ccc(N(CC(C)C)S(=O)(=O)c2ccc(NCC3CNC(=O)C3)c(S(C)(=N)=O)c2)cc1 (centres unmarked) [compound 59, N-(4-ethylphenyl)-N-isobutyl-3-(S-methylsulfonimidoyl)-4-(((5-oxopyrrolidin-3-yl)methyl)amino)benzenesulfonamide] | 100 to 1000 |
| COc1ccc(N(C(C)C)S(=O)(=O)c2ccc(OCC3CCOCC3)c(S(C)(=N)=O)c2)c(C)c1 (centres unmarked) [compound 143, N-isopropyl-N-(4-methoxy-2-methylphenyl)-3-(S-methylsulfonimidoyl)-4-((tetrahydro-2H-pyran-4-yl)methoxy)benzenesulfonamide] | 100 to 1000 |
| CCc1ccc(N(CC(C)C)S(=O)(=O)c2ccc(NCC3(N4CCCC4)COC3)c(S(C)(=N)=O)c2)cc1 (centres unmarked) [compound 132, N-(4-ethylphenyl)-N-isobutyl-3-(S-methylsulfonimidoyl)-4-(((3-(pyrrolidin-1-yl)oxetan-3-yl)methyl)amino)benzenesulfonamide] | > 1000 |
| CCc1ccc(N(CC(C)C)S(=O)(=O)c2ccc3c(c2)N(CC2CCOCC2)CCS3)cc1 [compound 6, 4-(tetrahydropyran-4-ylmethyl)-3,4-dihydro-2H-benzo[1,4]thiazine-6-sulfonic acid (4-ethylphenyl)isobutylamide] | > 1000 |
| CCc1ccc(N(CC(C)C)S(=O)(=O)c2ccc(N3CCCC4(COC4)C3)c(S(C)(=N)=O)c2)cc1 (centres unmarked) [compound 109, N-(4-ethylphenyl)-N-isobutyl-3-(S-methylsulfonimidoyl)-4-(2-oxa-6-azaspiro[3.5]nonan-6-yl)benzenesulfonamide] | > 1000 |
| CCc1ccc(N(CC(C)C)S(=O)(=O)c2ccc(NCC3CCC(=O)NC3)c(S(C)(=N)=O)c2)cc1 (centres unmarked) [compound 58, N-(4-ethylphenyl)-N-isobutyl-3-(S-methylsulfonimidoyl)-4-(((6-oxopiperidin-3-yl)methyl)amino)benzenesulfonamide] | > 1000 |
| CCc1ccc(N(CC(C)C)S(=O)(=O)c2ccc(NCC3CCN(C(C)=O)C3)c(S(C)(=N)=O)c2)cc1 (centres unmarked) [compound 100, 4-(((1-acetylpyrrolidin-3-yl)methyl)amino)-N-(4-ethylphenyl)-N-isobutyl-3-(S-methylsulfonimidoyl)benzenesulfonamide] | > 1000 |
| CCc1ccc(N(CC(C)C)S(=O)(=O)c2ccc(NCC3CCS(=O)(=O)CC3)c(S(C)(=N)=O)c2)cc1 (centres unmarked) [compound 57, 4-(((1,1-dioxidotetrahydro-2H-thiopyran-4-yl)methyl)amino)-N-(4-ethylphenyl)-N-isobutyl-3-(S-methylsulfonimidoyl)benzenesulfonamide] | > 1000 |
| CCc1ccc(N(CC(C)C)S(=O)(=O)c2ccc(OCC3CCOCC3)c([S+]([O-])CC)c2)cc1 (centres unmarked) [compound 22, ethanesulfinyl-N-(4-ethylphenyl)-N-isobutyl-4-(tetrahydropyran-4-ylmethoxy)benzenesulfonamide] | 100 to 1000 |
| CCc1ccc(N(CC(C)C)S(=O)(=O)c2ccc3c(c2)[S+]([O-])CCN3CC2CCOCC2)cc1 (centres unmarked) [compound 71, 1-oxo-4-(tetrahydropyran-4-ylmethyl)-1,2,3,4-tetrahydro-1λ^4-benzo[1,4]thiazine-7-sulfonic acid (4-ethylphenyl)isobutylamide] | > 1000 |
| CCc1ccc(N(CC(C)C)S(=O)(=O)c2ccc(NCC3CC4(COC4)C3)c(S(C)(=N)=O)c2)cc1 (centres unmarked) [compound 95, 4-(((2-oxaspiro[3.3]heptan-6-yl)methyl)amino)-N-(4-ethylphenyl)-N-isobutyl-3-(S-methylsulfonimidoyl)benzenesulfonamide] | 100 to 1000 |
| CCc1ccc(N(CC(C)C)S(=O)(=O)c2ccc(OCC3CCOCC3)c(SC)c2)cc1 [compound 25, N-(4-ethylphenyl)-N-isobutyl-3-methylsulfanyl-4-(tetrahydropyran-4-ylmethoxy)benzenesulfonamide] | 100 to 1000 |
| CCc1ccc(N(CC(C)C)S(=O)(=O)c2ccc(NCc3ccnc(OC)c3)c(S(C)(=N)=O)c2)cc1 (centres unmarked) [compound 127, N-(4-ethylphenyl)-N-isobutyl-4-(((2-methoxypyridin-4-yl)methyl)amino)-3-(S-methylsulfonimidoyl)benzenesulfonamide] | 100 to 1000 |
| CCc1ccc(N(CC(C)C)S(=O)(=O)c2ccc(OCC(O)CO)c(S(C)(=N)=O)c2)cc1 (centres unmarked) [compound 40, 4-(2,3-dihydroxypropoxy)-N-(4-ethylphenyl)-N-isobutyl-3-(S-methylsulfonimidoyl)benzenesulfonamide] | > 1000 |
| CCc1ccc(N(CC(C)C)S(=O)(=O)c2ccc(NC[C@H]3CNC(=O)O3)c(S(C)(=N)=O)c2)cc1 (stereo partly drawn) [compound 106, N-(4-ethylphenyl)-N-isobutyl-3-(S-methylsulfonimidoyl)-4-((((S)-2-oxooxazolidin-5-yl)methyl)amino)benzenesulfonamide] | > 1000 |
| CCc1ccc(N(CC(C)C)S(=O)(=O)c2ccc(NC3CCS(=O)(=O)C3)c(S(C)(=N)=O)c2)cc1 (centres unmarked) [compound 86, 4-((1,1-dioxidotetrahydrothiophen-3-yl)amino)-N-(4-ethylphenyl)-N-isobuytl-3-(S-methylsulfonimidoyl)benzenesulfonamide] | 100 to 1000 |
| CCc1ccc(N(CC(C)C)S(=O)(=O)c2ccc(NCc3ccnc(C)c3)c(S(C)(=N)=O)c2)cc1 (centres unmarked) [compound 90, N-(4-ethylphenyl)-N-isobutyl-4-(((2-methylpyridin-4-yl)methyl)amino)-3-(S-methylsulfonimidoyl)benzenesulfonamide] | > 1000 |
| CCc1ccc(N(CC(C)C)S(=O)(=O)c2ccc(N3CC4(C3)CS(=O)(=O)C4)c(S(C)(=N)=O)c2)cc1 (centres unmarked) [compound 113, 4-(2,2-dioxido-2-thia-6-azaspiro[3.3]heptan-6-yl)-N-(4-ethylphenyl)-N-isobutyl-3-(S-methylsulfonimidoyl)benzenesulfonamide] | 100 to 1000 |
